Measured values reported in patent US6372723B1, “Compositions and methods for preventing restenosis following revascularization procedures” (Discovery Therapeutics, Inc., priority 1997, dated 2002).

What was measured:
[1] = system: rabbits with focal femoral atherosclerosis (arterial stenosis); assay: Restenosis after balloon angioplasty in rabbits with focal femoral atherosclerosis; type: in vivo; settings: rabbit
Description: Focal femoral atherosclerosis is induced in rabbits by air desiccation endothelial injury followed by a 2% cholesterol, 6% peanut oil diet for one month. The degree of arterial stenosis is assessed angiographically. At this time, balloon angioplasty is performed using a 2.5 mm balloon, which is inserted into the region of stenosis and inflated with three 60-second, 10-atmosphere inflations 60 seconds apart. This procedure is similar to that used in humans for clearing coronary blood vessels. Rabbits receive an intravenous infusion of 2-cyclohexylmethylenehydrazinoadenosine (0.6 μg/kg/min) or vehicle starting 10 minutes before the angioplasty procedure and continuing for 1 day following angioplasty. Angiograms are performed before and after angioplasty and at 28 days after angioplasty. These angiograms are analyzed quantitatively for decrease of arterial stenosis. Rabbits are sacrificed 28 days following angioplasty and arteries are analyzed histopathologically and morphometrically.
Example 1 is followed, with the exception that one rabbit group is treated with an effective amount of a combination of (±)-N^6-endonorboman-2-yl-9-methyladenine (0.25 mg/kg/min) and 5′-N-ethylcarboxamidoadenosine (6 μg/kg/min) instead of 2-cyclohexylmethylenehydrazinoadenosine. […]

[2] = system: platelets and neutrophils; assay: In vivo activation of neutrophils and platelets after balloon angioplasty, flow cytometry of coronary sinus blood; design: species or system human; settings: humans, i.v. infusion 0.6 μg/kg/min from 10 min before to 1 day after angioplasty
Description: Humans are subjected to balloon angioplasty, and receive either an intravenous infusion of 2-cyclohexylmethylenehydrazinoadenosine (0.6 μg/kg/min) or vehicle starting 10 minutes before the angioplasty procedure and continuing for 1 day following angioplasty. In vivo activation of neutrophils and platelets are measured by taking a blood sample from the coronary sinus and measuring the expression of surface adhesion molecules on platelets and neutrophils by flow cytometry.

[3] = system: humans with stenotic arteries (restenosis); assay: Incidence of restenosis by angiography six months after balloon angioplasty; type: in vivo, human; settings: i.v. infusion 0.6 μg/kg/min from 10 min before to 1 day after angioplasty
Description: Humans afflicted with impaired blood flow due to stenotic arteries are subjected to balloon angioplasty, and receive either an intravenous infusion of 2-cyclohexylmethylenehydrazinoadenosine (0.6 μg/kg/min) or vehicle starting 10 minutes before the angioplasty procedure and continuing for 1 day following angioplasty. Six months following the balloon angioplasty procedure, angiography is performed on these subjects to examine the blood vessel subjected to the angioplasty.

SMILES	degree of arterial stenosis vs vehicle group ([1]; A1 antagonist alone 0.25 μg/kg/min, as Example 1)	neutrophils that express surface adhesion molecules vs vehicle group [2]	platelets that express surface adhesion molecules vs vehicle group [2]	incidence of restenosis vs vehicle group [3]	degree of arterial stenosis vs vehicle group ([1]; i.v. infusion 0.6 μg/kg/min from 10 min before to 1 day after angioplasty, assessed 28 days after angioplasty)
Cn1cnc2c(N[C@@H]3C[C@@H]4CC[C@H]3C4)ncnc21 (racemic) [(±)-N^6-endonorbornan-2-yl-9-methyladenine, reference compound]	significantly less	–	–	–	–
Nc1nc(NN=CC2CCCCC2)nc2c1ncn2[C@@H]1O[C@H](CO)[C@@H](O)[C@H]1O [2-cyclohexylmethylenehydrazinoadenosine]	–	significantly fewer	significantly fewer	significantly less	significantly less
